Read-outs that look alike come from different tables or passages of the source.
Experiments:
in vitro = assay: in vitro; set-up: CellTiter-Glo viability of parental Ba/F3 cells with IL-3 (counter-screen); settings: mouse, parental ba/f3 cells +il-3; with IL-3; read-out: IC50 parental Ba/F3 (+IL-3)
Description: To identify drugs that can overcome these mutations, we screened our focused 90-inhibitor library using Ba/F3 cells expressing EML4-ALK I1171N + F1174I and I1171N + L1198H. At a concentration of 50 nM, gilteritinib suppressed the viability of both wild-type (WT) and compound mutant Ba/F3 cells (Fig. 1a). Since gilteritinib has reported as multi-kinase inhibitor, we first evaluated whether the ALK inhibitory efficacy of gilteritinib is driven by on-target activity or not. As a result of western blot analysis, gilteritinib suppressed the autophosphorylation of ALK in EML4-ALK-expressing Ba/F3 cells (Fig. 1b and Supplementary Fig. 1). […] As well as Ba/F3 cell model, we verified the activity of gilteritinib to H3122 cell line that is EML4-ALK-positive NSCLC cells. […] Then, the inhibitory concentration of gilteritinib is matched between ALK phosphorylation and its downstream signals. […] Further, using the phosphoproteomics data, kinase substrate-enrichment analysis (KSEA) predicted activate kinase candidates as potential gilteritinib targets and identified ALK as the most likely regulated protein (Fig. 1e, Supplementary Figs. 3 and 4, and Supplementary Table 2).  Fig. 1 Identification of gilteritinib as an inhibitor of ALK-rearranged cancer cells. a Relative cell viability of parental (with IL-3), EML4-ALK wild-type (WT), EML4-ALK I1171N + F1174I, and EML4-ALK I1171N + L1198H Ba/F3 cells treated with 50 nM of the indicated inhibitors. Cell viability was analyzed using the CellTiter-Glo assay and calculated relative to the viability of dimethyl sulfoxide-treated Ba/F3 cells. b The suppression of phospho-ALK in I1171N + F1174I, I1171N + L1198H mutation-expressing Ba/F3 cells was evaluated using western blotting. Cells were treated with the indicated concentrations of gilteritinib for 3 h (n = 2). c The suppression of phospho-ALK and its downstream signals in H3122 parental cells and I1171N + F1174I compound mutation-expressing cells were evaluated using western blotting. […] N = 3 independent samples examined over three independent experiments and representative experiment data are presented as mean values ± SD. e Volcano plot displaying the −log10 (p-value) versus log2 (gilteritinib treatment/DMSO treatment) for all quantified phosphopeptides. The red diamond indicates phospho-ALK.

H3122 = assay: cells; set-up: CellTiter-Glo viability of fusion-positive human cancer cell lines; settings: Homo sapiens, NCI-H3122, 72 h; read-out: Entrectinib IC50
KARPAS299 = assay: cells; set-up: CellTiter-Glo viability of fusion-positive human cancer cell lines; settings: Homo sapiens, KARPAS-299, 72 h
JFCR-018-1 = assay: cells; set-up: CellTiter-Glo viability of fusion-positive human cancer cell lines; settings: 72 h
H2228 = assay: cells; set-up: CellTiter-Glo viability of fusion-positive human cancer cell lines; settings: Homo sapiens, NCI-H2228, 72 h
MCC-003 = assay: cells; set-up: CellTiter-Glo viability of fusion-positive human cancer cell lines; settings: 72 h; read-out: Entrectinib IC50
JFCR-028-3 = assay: cells; set-up: CellTiter-Glo viability of fusion-positive human cancer cell lines; settings: 72 h; read-out: Entrectinib IC50
KM12 = assay: cells; set-up: CellTiter-Glo viability of fusion-positive human cancer cell lines; settings: Homo sapiens, KM12, 72 h
EML4-ALK = biological target: T1, EML4-ALK (Homo sapiens, UniProt Q9UM73, I1171N/F1174I); assay: phospho-ALK western blot in cells; assay type: cell-based
T1 construct: EML4-ALK fusion expressed in Ba/F3 and H3122 cells
T1 sequence (Q9UM73 1058-1620 I1171N/F1174I limits assumed): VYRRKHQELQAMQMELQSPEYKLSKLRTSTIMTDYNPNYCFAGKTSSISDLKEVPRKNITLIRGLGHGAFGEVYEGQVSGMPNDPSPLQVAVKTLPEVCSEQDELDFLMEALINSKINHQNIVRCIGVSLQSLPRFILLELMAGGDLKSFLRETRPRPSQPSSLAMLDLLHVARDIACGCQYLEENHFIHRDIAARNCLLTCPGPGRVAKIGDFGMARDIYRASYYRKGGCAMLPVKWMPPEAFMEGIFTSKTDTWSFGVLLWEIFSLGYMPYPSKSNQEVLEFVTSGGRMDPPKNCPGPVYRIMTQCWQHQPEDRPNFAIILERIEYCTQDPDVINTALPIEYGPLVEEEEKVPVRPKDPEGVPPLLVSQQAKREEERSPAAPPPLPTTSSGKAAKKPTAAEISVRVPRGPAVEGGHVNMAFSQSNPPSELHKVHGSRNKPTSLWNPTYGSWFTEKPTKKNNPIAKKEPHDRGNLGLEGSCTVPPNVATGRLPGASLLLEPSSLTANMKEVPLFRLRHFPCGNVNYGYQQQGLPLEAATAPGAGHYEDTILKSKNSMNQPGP

NTRK1 [1] = biological target: T2, NTRK1 (Homo sapiens, UniProt P04629); assay: phospho-NTRK1 western blot in KM12 / Ba/F3 cells; assay type: cell-based
T2 construct: TPM3-NTRK1 fusion in cells
T2 sequence (P04629 416-796 limits assumed): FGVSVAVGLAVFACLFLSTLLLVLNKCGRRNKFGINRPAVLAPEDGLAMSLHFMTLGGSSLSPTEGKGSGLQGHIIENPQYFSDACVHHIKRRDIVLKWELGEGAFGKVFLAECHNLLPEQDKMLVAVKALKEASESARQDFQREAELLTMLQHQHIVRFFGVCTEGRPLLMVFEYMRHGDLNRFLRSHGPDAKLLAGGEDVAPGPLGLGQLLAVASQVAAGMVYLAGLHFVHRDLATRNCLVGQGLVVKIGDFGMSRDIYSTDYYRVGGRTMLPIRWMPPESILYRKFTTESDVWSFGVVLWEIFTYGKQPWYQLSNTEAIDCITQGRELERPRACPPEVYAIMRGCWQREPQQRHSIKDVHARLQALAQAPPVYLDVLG

NTRK1 [2] = biological target: T3, NTRK1 (Homo sapiens, UniProt P04629, G667C); assay: NTRK1 autophosphorylation western blot in Ba/F3 cells; assay type: cell-based
T3 construct: TPM3-NTRK1 fusion expressed in Ba/F3 cells
T3 sequence (P04629 405-796 G667C limits assumed): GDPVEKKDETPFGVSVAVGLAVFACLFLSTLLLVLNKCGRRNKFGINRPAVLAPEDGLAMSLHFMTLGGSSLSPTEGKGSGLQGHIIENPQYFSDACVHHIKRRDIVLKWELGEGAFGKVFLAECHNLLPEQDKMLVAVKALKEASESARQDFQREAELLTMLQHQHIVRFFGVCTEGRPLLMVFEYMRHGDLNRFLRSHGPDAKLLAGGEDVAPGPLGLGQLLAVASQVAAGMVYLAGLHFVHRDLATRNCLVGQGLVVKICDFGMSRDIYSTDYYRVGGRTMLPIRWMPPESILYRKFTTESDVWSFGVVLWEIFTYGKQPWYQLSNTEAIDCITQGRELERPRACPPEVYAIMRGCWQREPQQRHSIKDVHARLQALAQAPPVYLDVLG

SMILES | CC50 at 72 h (in vitro) [µM] | IC50 (H3122) [µM] | IC50 (KARPAS299; read-out: Entrectinib IC50) [µM] | IC50 (JFCR-018-1; read-out: Entrectinib IC50) [µM] | IC50 (H2228; read-out: Entrectinib IC50) [µM] | IC50 (MCC-003) [µM] | IC50 (JFCR-028-3) [µM] | IC50 (KM12; read-out: Entrectinib IC50) [µM] | phospho-ALK western blot in cells (EML4-ALK) [nM] | phospho-NTRK1 western blot in KM12 / Ba/F3 cells (NTRK1 [1]) | NTRK1 autophosphorylation western blot in Ba/F3 cells (NTRK1 [2]) | IC50 (JFCR-018-1; read-out: Gilteritinib IC50) [µM] | IC50 (H2228; read-out: Gilteritinib IC50) [µM] | IC50 (KARPAS299; read-out: Lorlatinib IC50) [µM] | IC50 (JFCR-018-1; read-out: Lorlatinib IC50) [µM] | IC50 (H2228; read-out: Lorlatinib IC50) [µM] | IC50 (KM12; read-out: Lorlatinib IC50) [µM]
CN1CCN(c2ccc(C(=O)Nc3n[nH]c4ccc(Cc5cc(F)cc(F)c5)cc34)c(NC3CCOCC3)c2)CC1 [Entrectinib] | 0.481 ± 0.089 | 0.044 ± 0.012 | 0.042 ± 0.0085 | 0.08 ± 0.018 | 0.019 ± 0.0041 | 0.496 ± 0.147 | 0.044 ± 0.017 | 0.0026 ± 0.00028 |  |  |  |  |  |  |  |  | 
CCc1nc(C(N)=O)c(Nc2ccc(N3CCC(N4CCN(C)CC4)CC3)c(OC)c2)nc1NC1CCOCC1 [gilteritinib] | 0.177 ± 0.0049 |  |  |  |  |  |  |  | < 30 | ~ 30 nM | gilteritinib, but not entrectinib, inhibited the autophosphorylation of NTRK1 in TPM3-NTRK1 G667C-mutant Ba/F3 cells at a low concentration | 0.0022 ± 0.00025 | 0.00052 ± 0.00014 |  |  |  | 
C[C@H]1Oc2cc(cnc2N)-c2c(nn(C)c2C#N)CN(C)C(=O)c2ccc(F)cc21 [lorlatinib] | 8.24 ± 2.41 |  |  |  |  |  |  |  |  |  |  |  |  | 0.0023 ± 0.001 | 0.0021 ± 0.00033 | 0.00046 ± 0.0002 | 0.138 ± 0.006

Reference: PMC7904790 (Nature Communications, 2021)
